Source: publication PMC12066977, “Alkyl Tail Variation on Chalcone‐Based Quaternary Pyridinium Salts as Rule‐of‐Thumb for Antimicrobial Activity” (Archiv Der Pharmazie, 2025)
Read-outs that look alike come from different tables or passages of the source.

Experiments:
C. albicans ATCC 10231 [1] = settings: lead compound 1, previously reported; read-out: IC50 [95% confidence interval] Candida albicans; cited from earlier work
Leishmania donovani = tested on: Leishmania donovani; parameters: method as in PMID 30669643, PMID 29758517; settings: lead compound 1, previously reported; read-out: IC50 against Leishmania donovani; cited from earlier work
E. coli ATCC 25922 = assay: Broth microdilution antimicrobial assay (MIC, IC50); type: cell-based; settings: Escherichia coli, 24 h; for MIC: ATCC25922, broth microdilution, 37°C
Description: (§1) Reference strains of Staphylococcus aureus (ATCC 25923), Escherichia coli (ATCC 25922), and Candida albicans (ATCC 10231) were used in this study as microbial models. These strains were purchased from the American Type Culture Collection (ATCC); bacterial cultures were routinely grown on 5% blood agar plate, while fungal cultures on Sabouraud Dextrose Agar (Biolife […]., Milan, Italy). […] In short, microbial inocula were prepared at 0.5 McFarland in PBS and, subsequently, bacterial suspensions were diluted 1:200 in Mueller-Hinton broth (Sigma-Aldrich, St. Louis, MO, USA), while fungal inoculum was diluted 1:20 in RPMI-1640 medium (Gibco®, ThermoFisher Scientific Inc., Waltham, MA, USA), containing glucose 2%, 0.3% levo-glutamine buffered to pH 7.0 with 0.165 M 3-(N-morpholino) propanesulfonic acid (MOPS). A total of 100 μL of these microbial suspensions was introduced into a 96-well microplate and incubated with 100 μL of the compounds, two-fold serially diluted in the range of 100-0.19 μM. Positive controls (microbial suspensions in regular media), negative controls (only compounds), and solvent controls (microbial suspensions incubated with DMSO dilutions) were included in the tests. The plate was incubated at 37°C for 24 h, and subsequently the optical density at 630 nm (OD630nm) was spectrophotometrically measured. Experiments were carried out in triplicate in three biological replicates. […] Statistical analysis was carried out by using GraphPad Prism version 9.4.1 for Windows (GraphPad Software, San Diego, California USA, www.graphpad.com). ^a MIC (Minimum Inhibitory Concentration) were determined in vitro by means of a standardized microdilution assay, in compliance with the Clinical and laboratory Standard Institute (CLSI) guidelines (30). Microbial suspensions were prepared at 0.5 McFarland in PBS, then diluted in the media and transferred in a 96 micro-well plate together with the serially 2-fold dilutions of the compounds. After 24h of incubation at 37°C, microbial growths were evaluated by measuring the Optical Density at 600 nm, then percentage values were obtained as relative to the positive controls (microbial suspensions in regular media).

S. aureus ATCC 25923 = assay: as above; type: cell-based; settings: Staphylococcus aureus; for IC50: ATCC25923, 50% growth inhibition, 24 h, read-out: IC50 [95% confidence interval] Staphylococcus aureus; for MIC: ATCC25923, 24 h, broth microdilution, 37°C
Description: as §1

Vero cells (ATCC CCL-81) = assay: Cell viability and proliferation assay (WST8/CCK-8); type: cell-based; settings: 48 h treatment, CCK-8; read-out: CC50 [95% CI] Vero cells
Description: (§2) Vero cell line (ATCC CCL‐81) was selected as a model system to investigate the overall effect of chalcones on non‐malignant mammalian cells. […] For experiments, cells were seeded into 96‐well plates at 10^4 cells/well and incubated at 37°C for 24 h. Following washes with PBS, the cell monolayer was incubated with 100 µL of medium containing the twofold serial dilutions of the compounds. Both untreated cells and cells incubated with medium containing solvent dilutions were included in each experiment as controls. The cell viability was assessed by a WST8‐based assay according to the manufacturer's instructions (CCK‐8, Cell Counting Kit‐8, Dojindo Molecular Technologies, Rockville, MD, USA). After 48 h of incubation, culture medium was removed from each well, the monolayer was washed with PBS, and 100 µL of fresh medium containing 10 µL of CCK‐8 solution was added. Following a 2 h incubation at 37°C, the OD450nm was read, and data were expressed as the percentage of cell viability relative to the untreated controls. The CC50 was obtained on the corresponding dose–response curves generated as previously reported for IC50 values. Experiments were carried out in triplicate in three biological replicates.

C. albicans ATCC 10231 [2] = assay: Broth microdilution antimicrobial assay (MIC, IC50); type: cell-based; settings: Candida albicans, 24 h; for MIC: ATCC10231, broth microdilution, 37°C
Description: as §1

[3] = tested on: S. aureus ATCC 25923, E. coli ATCC 25922, C. albicans ATCC 10231; assay: Broth microdilution antimicrobial assay, statements pooled over the three strains; type: cell-based; settings: stated for S. aureus, E. coli and C. albicans together; read-out: MIC toward the three selected strains
Description: The antimicrobial activity of the compounds was assessed by determining the Minimum Inhibitory Concentration (MIC) by a well‐established broth microdilution procedure in microtiter plates and in compliance with the Clinical and Laboratory Standards Institute (CLSI) guidelines.
In short, microbial inocula were prepared at 0.5 McFarland in PBS and, subsequently, bacterial suspensions were diluted 1:200 in Mueller–Hinton broth (Sigma‐Aldrich, St. Louis, MO, USA), while fungal inoculum was diluted 1:20 in RPMI‐1640 medium (Gibco®, ThermoFisher Scientific Inc., Waltham, MA, USA), containing glucose 2%, 0.3% levo‐glutamine buffered to pH 7.0 with 0.165 M 3‐(N‐morpholino) propanesulfonic acid (MOPS). A total of 100 µL of these microbial suspensions was introduced into a 96‐well microplate and incubated with 100 µL of the compounds, two‐fold serially diluted in the range of 100–0.19 µM. Positive controls (microbial suspensions in regular media), negative controls (only compounds), and solvent controls (microbial suspensions incubated with DMSO dilutions) were included in the tests. The plate was incubated at 37°C for 24 h, and subsequently the optical density at 630 nm (OD630nm) was spectrophotometrically measured. Experiments were carried out in triplicate in three biological replicates. […]

[4] = tested on: human red blood cells (hRBCs); assay: Hemolytic activity assay; type: cell-based; settings: 25 µM, 90 min, 37°C
Description: The hemolytic activity of some selected compounds was evaluated as the amount of hemoglobin released by the disruption of human red blood cells (hRBCs). For the experiments, fresh hRBCs were collected by centrifugation at 1500g for 10 min, washed three times with PBS, and resuspended to a final concentration of 4% w/v hRBCs in PBS. Then, 100 µL of hRBCs suspension and an equal volume of the twofold dilutions of the antimicrobial peptides were mixed in a 96‐well plate and incubated for 90 min at 37°C. After centrifugation at 1000g for 5 min, the supernatants were transferred into a clear 96‐well plate, and OD405nm was read. Untreated hRBCs (incubated with PBS) and hRBCs incubated with 1% Triton X‐100 were employed as negative and positive controls, respectively. The hemolysis percentage was calculated as [OD405nm (sample) − OD4_05nm (negative control)]/[OD405nm (positive control) − OD405nm (negative control)] × 100. Minimal hemolytic concentrations (MHCs) were defined as the compound concentration causing 10% hemolysis. Three independent experiments were performed in triplicate.

[5] = Cell viability and proliferation assay (WST8/CCK-8); type: cell-based; settings: African green monkey, Vero cells (ATCC CCL-81), 48 h treatment, CCK-8; read-out: CC50 [95% CI] Vero cells
Description: as §2

S. aureus biofilm = assay: Inhibition of biofilm formation (crystal violet staining); type: cell-based; settings: Staphylococcus aureus, 24 h, CV staining, read-out: inhibition of S. aureus biofilm production
Description: (§3) The ability of some selected compounds to inhibit biofilm formation was assessed by established protocols with minor modifications. In short, exponential cultures of S. aureus, E. coli, and C. albicans grown in Tryptic Soy broth (TSB, Sigma‐Aldrich, St. Louis, MO, USA) were adjusted to a final density of 10^5 CFU/mL. Aliquots of 100 µL of the microbial cultures were transferred to a 96‐well flat‐bottom polystyrene microplate, and then incubated at 37°C for 90 min to promote bacterial adhesion. Thereafter, wells were slowly rinsed with PBS to remove nonattached cells, and 100 µL of TSB supplemented with 1% glucose containing the twofold serial dilutions of the compounds was added. After incubation at 37°C for 24 h, the free‐floating cells were removed, and the biofilms were carefully washed with PBS. The biomass was quantified by a standardized crystal violet (CV) staining. Briefly, 100 µL of CV solution (0.1% in water) was added to each well containing a completely air‐dried biofilm, and incubated for 30 min at 37°C. […] Finally, the colored supernatants were transferred to a new microplate, and the OD550nm was measured. The percentage inhibition of biofilm formation in the different experimental conditions was calculated relative to the biofilm mass formed in the absence of compounds (positive control).

E. coli biofilm = assay: as above; type: cell-based; settings: Escherichia coli, 24 h, CV staining, read-out: inhibition of E. coli biofilm production
Description: as §3

Row | MIC (E. coli ATCC 25922) [µM] | IC50 (S. aureus ATCC 25923) [µM] | MIC (S. aureus ATCC 25923) [µM] | MIC (C. albicans ATCC 10231 [2]) [µM] | MIC [3] [µM] | IC50 (E. coli ATCC 25922; ATCC25922, 50% growth inhibition, read-out: IC50 [95% confidence interval] Escherichia coli) [µM] | IC50 (C. albicans ATCC 10231 [2]; ATCC10231, 50% growth inhibition, read-out: IC50 [95% confidence interval] Candida albicans) [µM] | Compound | IC50 (C. albicans ATCC 10231 [1]) [µM] | IC50 (Leishmania donovani) [µM] | CC50 (Vero cells (ATCC CCL-81)) [µM] | hemolytic activity [4] [%] | CC50 at 48 h [5] [µM] | inhibition at 25 µM (S. aureus biofilm) [%] | inhibition at 25 µM (E. coli biofilm) [%]
1 | > 100 | 47.6 | – | – | – | – | – | C#CCOc1ccc(C(=O)/C=C/c2cccnc2)c(OCC#C)c1 [Compound 1] | 43.8 | 4 | – | – | – | – | –
2 | – | – | > 100 | > 100 | ≥ 50 | – | – | C#CCOc1ccc(C(=O)/C=C/c2cccnc2)c(OCC#C)c1 [Compound 9, (E)‐3‐{3‐[2,4‐Bis(prop‐2‐yn‐1‐yloxy)phenyl]‐3‐oxoprop‐1‐en‐1‐yl}pyridin‐1‐ium bromide] | – | – | 6.2 | – | – | – | –
3 | 6.25 | 0.84 | 1.56 | 6.25 | – | 4.48 | 4.28 | C#CCOc1ccc(C(=O)/C=C/c2ccc[n+](CCCCCCCCCC)c2)c(OCC#C)c1.[Br-] [Compound 4, (E)‐3‐{3‐[2,4‐Bis(prop‐2‐yn‐1‐yloxy)phenyl]‐3‐oxoprop‐1‐en‐1‐yl}‐1‐decylpyridin‐1‐ium bromide] | – | – | – | 30.0 | 12.8 | > 90 | > 90
